Assay results as given in US11312722B2, “Hsp90 inhibitors and uses thereof” (TRUSTEES OF BOSTON UNIVERSITY, priority 2019, dated 2022).

Legend:
[1] = test system: C. neoformans (Strain H99); assay: Antifungal sensitivity testing (MIC), C. neoformans H99; format: cell-based; details: for C. neo Active (cells): Yes/No call
[2] = target: T1, C. neoformans Hsp90 NBD (Cryptococcus neoformans, UniProt J9VVA4); assay: FP assay with purified C. neoformans Hsp90 NBD (Ki); format: binding; details: for C. neo Selectivity (FS): C. neo FS calculated using Ki
T1 sequence (J9VVA4 1-699): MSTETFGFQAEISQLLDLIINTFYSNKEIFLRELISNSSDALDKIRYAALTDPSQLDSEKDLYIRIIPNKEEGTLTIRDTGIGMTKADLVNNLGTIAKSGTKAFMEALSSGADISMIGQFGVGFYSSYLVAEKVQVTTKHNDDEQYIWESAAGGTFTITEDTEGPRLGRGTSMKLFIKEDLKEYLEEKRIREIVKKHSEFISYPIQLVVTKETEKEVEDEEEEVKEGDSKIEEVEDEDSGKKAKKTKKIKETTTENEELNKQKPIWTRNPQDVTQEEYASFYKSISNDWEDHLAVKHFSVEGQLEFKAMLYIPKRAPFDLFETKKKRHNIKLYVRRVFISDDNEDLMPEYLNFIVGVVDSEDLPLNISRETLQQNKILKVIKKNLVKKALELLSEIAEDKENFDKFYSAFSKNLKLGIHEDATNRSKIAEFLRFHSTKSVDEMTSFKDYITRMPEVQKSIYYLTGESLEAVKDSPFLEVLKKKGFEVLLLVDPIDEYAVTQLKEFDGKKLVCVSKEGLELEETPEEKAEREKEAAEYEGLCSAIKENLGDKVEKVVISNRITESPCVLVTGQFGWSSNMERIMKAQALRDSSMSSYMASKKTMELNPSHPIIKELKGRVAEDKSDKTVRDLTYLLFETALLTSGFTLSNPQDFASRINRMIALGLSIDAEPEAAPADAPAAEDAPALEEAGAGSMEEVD
Protocol: Thermal shift assays were performed under saturating ligand conditions, i.e. equimolar concentrations (10 μM) of protein and ligand. As a result, they can provide only qualitative evidence of target binding, but not a quantitative measurement of ligand affinity. […] Titrations of the Cy3-GdA probe and purified proteins were evaluated to define assay conditions and to determine the dissociation constant Kd of the probe for each NBD. Serial dilutions of test Hsp90 inhibitors were then assayed in triplicate wells under these conditions. Non-linear 4-parameter curve fitting of raw displacement data was performed in GraphPad Prism 5.0 to determine IC50 values. Finally, inhibitory constants (Ki) were calculated as described previously.
NBD expression and purification. Recombinant Hsp90 NBDs were expressed and purified as previously described. Stock protein solutions in 50% glycerol were stored at −20° C. until dilution into relevant buffers and use for FP and thermal shift assays.

[3] = test system: Hsp90 (C. albicans whole cell lysate); assay: biochemical; format: binding; details: for C. alb Selective: Yes/No call
Procedure, shortened: (§1)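 In this fluorescence polarization competition assay, compound titrations in buffer with 0.1 mg/mL bovine gamma globulin were mixed with fungal whole-cell lysate spiked with 0.1 nM Cy3-geldanamycin probe. Plates were incubated 4.5 h at room temperature. EC50 came from 4-parameter fits of probe displacement, normalized to GdA in the same lysate.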

[4] = target: Hsp90 (C. albicans whole cell lysate) (Candida albicans (strain SC5314 / ATCC MYA-2876) (Yeast), UniProt P46598); assay: biochemical; format: binding; details: for C. alb Active (biochemical): Yes/No call; for EC50: read-out: C. alb EC50
Procedure, shortened: as §1

[5] = target: Hsp90 (C. neoformans whole cell lysate) (Cryptococcus neoformans, UniProt J9VVA4); format: binding; details: for C. neo Active (biochemical): Yes/No call; for EC50: read-out: C. neo EC50
Sequence of Hsp90 (C. neoformans whole cell lysate) (Cryptococcus neoformans, UniProt J9VVA4) (J9VVA4 1-699): as above
Protocol: (§2) All analogs were assessed for Hsp90 binding affinity using a fluorescence polarization (FP)-based equilibrium competition assay in fungal and human whole cell lysates. […] Using lysates, the relative potency and selectivity for fungal Hsp90 was measured versus the entire ensemble of human Hsp90 isoforms in microplate format using small amounts of test materials. […] Thermal shift assays were performed under saturating ligand conditions, i.e. equimolar concentrations (10 μM) of protein and ligand. As a result, they provided qualitative evidence of target binding, but not a quantitative measurement of ligand affinity. For quantitation, a ligand dissociation constant (Ki) for key compounds was also determined using purified NBDs in FP assays and KD measurements were made by surface plasmon resonance (SPR) using a Biacore instrument. Finally, all analogs were assessed for whole cell antifungal activity against the pathogens C. albicans and C. neoformans.
(§3) FP assays. Whole cell lysates were prepared for FP assays as described previously. Total protein concentration of human and yeast lysates was determined by Bradford assay. […] Serial dilutions of test Hsp90 inhibitors were then assayed under these same conditions to monitor loss of fluorescence polarization as an indicator of probe displacement from Hsp90. […] Titrations of test compound in 25 μL of binding buffer (supplemented with 0.1 mg/mL bovine gamma globulin), were mixed with an equal volume of freshly prepared whole-cell lysate spiked with Cy3-GdA (0.1 nM). Plates were incubated at room temperature for 4.5 h to achieve equilibrium binding for the geldanamycin-based probe. […] Non-linear 4-parameter curve fitting of raw displacement data was performed in GraphPad Prism 5.0 to determine EC50 values as a measure of relative Hsp90-binding affinity. Results were normalized to the value determined for GdA in lysate of each cell type.
(§4) Statistical methods. […] In calculating the error of selectivity determinations, the fractional error of measurements in each species was summed to yield a composite error for the derived ratio.

[6] = test system: Hsp90 (C. neoformans whole cell lysate); format: binding; details: Yes/No call
Protocol: as §2, §3, §4

[7] = target: T2, C. albicans Hsp90 NBD (Candida albicans (strain SC5314 / ATCC MYA-2876) (Yeast), UniProt P46598); details: cited from earlier work
T2 sequence (P46598 1-240 limits assumed): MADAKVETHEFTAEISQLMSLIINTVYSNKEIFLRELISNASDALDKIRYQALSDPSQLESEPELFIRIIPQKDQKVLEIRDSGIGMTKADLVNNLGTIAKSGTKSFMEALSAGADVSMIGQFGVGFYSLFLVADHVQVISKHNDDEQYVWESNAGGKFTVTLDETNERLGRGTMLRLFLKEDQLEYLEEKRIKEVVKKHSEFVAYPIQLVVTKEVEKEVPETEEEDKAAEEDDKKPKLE

[8] = target: T1, C. neoformans Hsp90 NBD; assay: Protein thermal shift assay, C. neoformans Hsp90 NBD; format: binding; details: equimolar protein and ligand (10 μM)
Protocol: […]. Using recombinant proteins, assay-independent nanomolar inhibitory constants (Ki) were defined for these compounds. Binding of the compounds to their relevant NBD by thermal shift denaturation assays was also confirmed. Thermal shift assays were performed under saturating ligand conditions, i.e. equimolar concentrations (10 μM) of protein and ligand. As a result, they can provide only qualitative evidence of target binding, but not a quantitative measurement of ligand affinity. […] […]. C. neoformans or C. albicans Hsp90 NBD was combined with equimolar concentrations of the indicated bioactive inhibitors (10 μM) or DMSO control, in technical triplicates. The protein was heated from 25 to 98.6° C. at 0.2° C./5 s in the presence of Sypro Orange dye. All compounds induce an increase in melting temperature relative to the DMSO control, reported as ΔTm.
Protein thermal shift assays. Thermal melting curves were determined using a Protein Thermal Shift Kit (ThermoFisher #4462263), employing a CFX384 Real-Time PCR System (Bio-Rad, C1000 Touch Thermal Cycler). Reactions were performed in a final volume of 10 μL, and contained purified C. albicans or C. neoformans Hsp90 NBD diluted to 250 μg/mL in Buffer HBS-P (GE Healthcare Life Sciences, 0.01 M HEPES pH 7.4, 0.15 M NaCl, 0.005% v/v Surfactant P20) with 10 μM synthetic analog or DMSO control, and 1× Sypro Orange dye solution. Samples were prepared in triplicate in 384-well white plates (Bio-Rad; HSP3805). The instrument was set to melt curve, step 1 (25° C., 2 min) and step 2 (ramp to 98.6° C., increasing 0.2° C. per 5 s cycle). The inflection point of each curve is defined as the protein melting temperature (Tm). Temperature shift, ΔTm, was recorded as the difference between the Tm of the fungal Hsp90 NBD with compound minus Tm of the protein without compound.

[9] = test system: C. albicans clinical isolate (CaCi2); assay: Fungicidal activity: spotting of MIC cultures onto compound-free YPD agar; format: cell-based; details: C. albicans CaCi2, spotted on YPD agar after 48 h exposure
Protocol: Color scale bar: no growth inhibition (green) to complete inhibition (black). Each shaded box represents the mean of technical duplicates. The experiment was repeated as an independent biological replicate to confirm results.
Each shaded box represents the mean of technical duplicates. Relative viable cell number was monitored by standard dye reduction assay after 3-hr incubation with resazurin at 37° C. FIG. 6B: Following exposure to compounds, aliquots of the culture in each well were spotted onto compound-free YPD agar and plates incubated at 30° C. for an additional 24 hours before imaging to assess viability. The entire experiment consisting of growth in liquid culture followed by spotting onto YPD agar was repeated once.
Antifungal sensitivity testing. […] Each compound was tested in duplicate in at least two independent experiments. […] Plates were photographed after 24 h of incubation at 30° C.

[10] = target: T1, C. neoformans Hsp90 NBD; assay: biochemical; format: binding; details: SPR, 25° C., read-out: Biacore KD
Protocol: (§5) SPR assays. For SPR experiments, Hsp90 NBD expression constructs were modified to encode a C-terminal AviTag™ for site-specific on-column biotinylation with a BirA biotin-ligase kit (Avidity LLC; BirA-500). SPR experiments were performed on a Biacore T200 instrument at 25° C. Biotinylated Hsp90 NBD was diluted to 40 μg/mL and immobilized on a streptavidin chip (Sensor Chip SA, GE Healthcare) at a density of 2000-2500 response units (RU) on the biosensor surface. […] Resulting sensorgrams were analyzed with a fit to a 1:1 binding model, using BIA evaluation software.

[11] = target: T2, C. albicans Hsp90 NBD; assay: biochemical; format: binding
Protocol: as §5

SMILES	C. neo MIC80 [1] [µM]	C. neo MIC90 [1] [µM]	C. neo Selectivity (FS) [2]	C. alb Selectivity (FS) [3]	C. alb Selective [3]	C. alb Active (biochemical) [4]	EC50 [4] [nM]	EC50 [5] [nM]	also measured
COc1ccccc1-c1cc(Nc2cc(O)cc(O)c2C(=O)N2CC[C@H](NC(C)=O)C2)n(C)n1 [ACSM01348]	>25	>25	107.7	>5	Yes	Yes	2250	620	C. neo Active (cells) [1]: No; C. neo Active (biochemical) [5]: Yes; C. neo selective [6]: Yes
COc1ccccc1-c1cc(Nc2cc(O)cc(O)c2C(=O)N2CC[C@H](NC(C)=O)C2)n(C)n1 [ACSM01349]	>25	>25	159.7	9.5	Yes	Yes	1210	246	C. neo Active (cells) [1]: No; C. neo Active (biochemical) [5]: Yes; C. neo selective [6]: Yes
COc1ccccc1-c1cc(Nc2cc(O)cc(O)c2C(=O)N2CC[C@@H](OC)C2)n(C)n1 [ACSM01350]	>25	>25	259.7	9.2	Yes	Yes	233	106	C. neo Active (cells) [1]: No; C. neo Active (biochemical) [5]: Yes; C. neo selective [6]: Yes
COc1ccccc1-c1cc(Nc2cc(O)cc(O)c2C(=O)N2CC[C@H](OC)C2)n(C)n1 [ACSM01351]	>25	>25	98	4.6	No	Yes	628	244	–
Cn1nc(-c2ccccc2)cc1Nc1cc(O)cc(O)c1C(=O)N1Cc2ccncc2C1 [BUCMD00467]	>25	>25	57.3	0.4	No	Yes	1040	151	–
COc1ccc(CON=C2C=CC=CC3OC3CC(C)OC(=O)c3c(O)cc(O)cc3C2)cc1 (centres unmarked) [CMLD013075]	–	–	–	–	–	–	–	–	binding selectivity for the C. albicans Hsp90 NBD compared to the human ortholog [7]: > 25 fold
COc1ccc(Cn2nc(-c3ccccc3)cc2Nc2cc(O)cc(O)c2C(=O)N2Cc3ccccc3C2)cc1 [Compound 21, 4-(2,3-dihydro-1H-isoindole-2-carbonyl)-5-((1-((4-methoxyphenyl)methyl)-3-phenyl-1H-pyrazol-5-yl)amino)benzene-1,3-diol]	–	–	–	–	–	–	–	–	C. neoformans NBD ΔTm [8]: 14 °C; fungicidal activity in combination with fluconazole [9]: fungicidal activity in combination with fluconazole
COc1ccc(Cn2ncc(C)c2Nc2cc(O)cc(O)c2C(=O)N2Cc3ccccc3C2)cc1 [Compound 41, 4-(2,3-Dihydro-1H-isoindole-2-carbonyl)-5-((1-((4-methoxyphenyl)methyl)-4-methyl-1H-pyrazol-5-yl)amino)benzene-1,3-diol]	–	–	–	–	–	–	–	–	fungicidal activity in combination with fluconazole [9]: fungicidal activity in combination with fluconazole
Cc1cc(Nc2cc(O)cc(O)c2C(=O)N2Cc3ccccc3C2)n(Cc2ccccc2Cl)n1 [Compound 89, 5-((1-((2-Chlorophenyl)methyl)-3-methyl-1H-pyrazol-5-yl)amino)-4-(2,3-dihydro-1H-isoindole-2-carbonyl)benzene-1,3-diol]	–	–	–	–	–	–	–	–	C. neoformans NBD ΔTm [8]: 12 °C; fungicidal activity in combination with fluconazole [9]: fungicidal activity in combination with fluconazole
Cn1nc(-c2ccc(C(F)(F)F)cc2)cc1Nc1cc(O)cc(O)c1C(=O)N1Cc2ccccc2C1 [Compound 124, 4-(2,3-Dihydro-1H-isoindole-2-carbonyl)-5-((1-methyl-3-(4-(trifluoromethyl)phenyl)-1H-pyrazol-5-yl)amino)benzene-1,3-diol]	–	–	–	–	–	–	–	–	C. neoformans NBD ΔTm [8]: 1 °C; Ki ([2]; FP, purified recombinant NBD): 190 nM
C[C@@H]1C[C@H]2O[C@@H]2/C=C\C=C\C(=O)Cc2c(Cl)c(O)cc(O)c2C(=O)O1 [Radicicol, radicicol]	–	–	–	–	–	–	–	–	Kd [10]: 2 nM; Kd [11]: 2 nM
